Results on 5 compounds are retold here after PubChem BioAssay AID2060501 (Molecular Pharmacology Branch, DTP, NCI, 2025).
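Note: spheroids exposed to compounds for 7 days before readout; percent of vehicle DMSO control viability with 100% = untreated-like growth.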

One assay has as its system 282377-053-R-J1-PDC complex spheroids, viability. The assay is described as follows: Anticancer human tumor 282377-053-R-J1-PDC patient-derived colon adenocarcinoma cell line growth inhibition [GQUAD]. The settings on record: second compound 0.0316 µM; first compound 3.16 µM; hits give low values. The method, boiled down: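 Tumor cells were grown as complex spheroids with HUVEC endothelial cells and mesenchymal stem cells as stroma. G-quadruplex stabilizers were combined with targeted agents over half-log dilutions from near the clinical Cmax, or from 10 microM.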
As a reminder, the viability, T/C is the ratio of treated to control. With `COc1ncnc(C2CC2)c1-c1ncc2cnn(Cc3ccc(-c4nc(C(F)(F)F)cn4C(C)C)cc3)c2n1` + CN(C)c1ccc(Nc2c3ccc(NC(=O)CCN4CCCC4)cc3nc3cc(NC(=O)CCN4CCCC4)ccc23)cc1, the viability, T/C is 88.1%.

As to `CC1COCCN1c1cc(C2(S(C)(=N)=O)CC2)nc(-c2ccnc3[nH]ccc23)n1` (stereo unspecified) + Cc1[nH]c2ccc(F)cc2c1-c1nc2c3cccnc3c3ncccc3c2[nH]1, the viability, T/C is 78.5%.

Take `COc1ccc([C@@H](O)c2cc(-c3ncnc4cc(N5CCOCC5)ccc34)c(F)cc2Cl)nn1` + Cc1[nH]c2ccc(F)cc2c1-c1nc2c3cccnc3c3ncccc3c2[nH]1: the viability, T/C is 76.3%.

The assay is the same for the next values; noted with them: second compound 0.0316 µM; first compound 10 µM; hits give low values.
Regarding `C=CCn1c(=O)c2cnc(Nc3ccc(N4CCN(C)CC4)cc3)nc2n1-c1cccc(C(C)(C)O)n1` + CN(C)c1ccc(Nc2c3ccc(NC(=O)CCN4CCCC4)cc3nc3cc(NC(=O)CCN4CCCC4)ccc23)cc1, the viability, T/C was 16.7%.

As for `CC(C)(O)C1CCC(Nc2ccc3ncc(-c4cccc(C(F)(F)F)c4)n3n2)CC1` (stereo unspecified) + CN(C)c1ccc(Nc2c3ccc(NC(=O)CCN4CCCC4)cc3nc3cc(NC(=O)CCN4CCCC4)ccc23)cc1, the viability, T/C is 29%.

Regarding `COc1ncnc(C2CC2)c1-c1ncc2cnn(Cc3ccc(-c4nc(C(F)(F)F)cn4C(C)C)cc3)c2n1` + CN(C)c1ccc(Nc2c3ccc(NC(=O)CCN4CCCC4)cc3nc3cc(NC(=O)CCN4CCCC4)ccc23)cc1, the viability, T/C was 66.2%.

Consider `CC1COCCN1c1cc(C2(S(C)(=N)=O)CC2)nc(-c2ccnc3[nH]ccc23)n1` (stereo unspecified) + Cc1[nH]c2ccc(F)cc2c1-c1nc2c3cccnc3c3ncccc3c2[nH]1, for which the viability, T/C is 55.6%.

As to `COc1ccc([C@@H](O)c2cc(-c3ncnc4cc(N5CCOCC5)ccc34)c(F)cc2Cl)nn1` + Cc1[nH]c2ccc(F)cc2c1-c1nc2c3cccnc3c3ncccc3c2[nH]1, the viability, T/C is 63.8%.

The assay is the same for the next values; noted with them: second compound 0.1 µM; first compound 0.0316 µM; hits give low values.
`C=CCn1c(=O)c2cnc(Nc3ccc(N4CCN(C)CC4)cc3)nc2n1-c1cccc(C(C)(C)O)n1` + CN(C)c1ccc(Nc2c3ccc(NC(=O)CCN4CCCC4)cc3nc3cc(NC(=O)CCN4CCCC4)ccc23)cc1: the viability, T/C was 108%.

For the compound `CC(C)(O)C1CCC(Nc2ccc3ncc(-c4cccc(C(F)(F)F)c4)n3n2)CC1` (stereo unspecified) + CN(C)c1ccc(Nc2c3ccc(NC(=O)CCN4CCCC4)cc3nc3cc(NC(=O)CCN4CCCC4)ccc23)cc1, the viability, T/C is 123%.

For the compound `COc1ncnc(C2CC2)c1-c1ncc2cnn(Cc3ccc(-c4nc(C(F)(F)F)cn4C(C)C)cc3)c2n1` + CN(C)c1ccc(Nc2c3ccc(NC(=O)CCN4CCCC4)cc3nc3cc(NC(=O)CCN4CCCC4)ccc23)cc1, the viability, T/C was 97.1%.

Take `CC1COCCN1c1cc(C2(S(C)(=N)=O)CC2)nc(-c2ccnc3[nH]ccc23)n1` (stereo unspecified) + Cc1[nH]c2ccc(F)cc2c1-c1nc2c3cccnc3c3ncccc3c2[nH]1: the viability, T/C was 90%.

For the compound `COc1ccc([C@@H](O)c2cc(-c3ncnc4cc(N5CCOCC5)ccc34)c(F)cc2Cl)nn1` + Cc1[nH]c2ccc(F)cc2c1-c1nc2c3cccnc3c3ncccc3c2[nH]1, the viability, T/C was 107%.

The assay is the same for the next values; noted with them: second compound 0.1 µM; first compound 0.1 µM; hits give low values.
For the compound `C=CCn1c(=O)c2cnc(Nc3ccc(N4CCN(C)CC4)cc3)nc2n1-c1cccc(C(C)(C)O)n1` + CN(C)c1ccc(Nc2c3ccc(NC(=O)CCN4CCCC4)cc3nc3cc(NC(=O)CCN4CCCC4)ccc23)cc1, the viability, T/C was 95.3%.

With `CC(C)(O)C1CCC(Nc2ccc3ncc(-c4cccc(C(F)(F)F)c4)n3n2)CC1` (stereo unspecified) + CN(C)c1ccc(Nc2c3ccc(NC(=O)CCN4CCCC4)cc3nc3cc(NC(=O)CCN4CCCC4)ccc23)cc1, the viability, T/C is 85%.

As for `COc1ncnc(C2CC2)c1-c1ncc2cnn(Cc3ccc(-c4nc(C(F)(F)F)cn4C(C)C)cc3)c2n1` + CN(C)c1ccc(Nc2c3ccc(NC(=O)CCN4CCCC4)cc3nc3cc(NC(=O)CCN4CCCC4)ccc23)cc1, the viability, T/C is 90.2%.

Regarding `CC1COCCN1c1cc(C2(S(C)(=N)=O)CC2)nc(-c2ccnc3[nH]ccc23)n1` (stereo unspecified) + Cc1[nH]c2ccc(F)cc2c1-c1nc2c3cccnc3c3ncccc3c2[nH]1, the viability, T/C is 91.8%.

With `COc1ccc([C@@H](O)c2cc(-c3ncnc4cc(N5CCOCC5)ccc34)c(F)cc2Cl)nn1` + Cc1[nH]c2ccc(F)cc2c1-c1nc2c3cccnc3c3ncccc3c2[nH]1, the viability, T/C is 101%.

The same assay, now with this note: second compound 0.1 µM; first compound 0.316 µM; hits give low values.
As to `C=CCn1c(=O)c2cnc(Nc3ccc(N4CCN(C)CC4)cc3)nc2n1-c1cccc(C(C)(C)O)n1` + CN(C)c1ccc(Nc2c3ccc(NC(=O)CCN4CCCC4)cc3nc3cc(NC(=O)CCN4CCCC4)ccc23)cc1, the viability, T/C was 82.7%.

On to `CC(C)(O)C1CCC(Nc2ccc3ncc(-c4cccc(C(F)(F)F)c4)n3n2)CC1` (stereo unspecified) + CN(C)c1ccc(Nc2c3ccc(NC(=O)CCN4CCCC4)cc3nc3cc(NC(=O)CCN4CCCC4)ccc23)cc1, for which the viability, T/C was 76.7%.

Take `COc1ncnc(C2CC2)c1-c1ncc2cnn(Cc3ccc(-c4nc(C(F)(F)F)cn4C(C)C)cc3)c2n1` + CN(C)c1ccc(Nc2c3ccc(NC(=O)CCN4CCCC4)cc3nc3cc(NC(=O)CCN4CCCC4)ccc23)cc1: the viability, T/C was 102%.

As to `CC1COCCN1c1cc(C2(S(C)(=N)=O)CC2)nc(-c2ccnc3[nH]ccc23)n1` (stereo unspecified) + Cc1[nH]c2ccc(F)cc2c1-c1nc2c3cccnc3c3ncccc3c2[nH]1, the viability, T/C is 82%.

Turning to `COc1ccc([C@@H](O)c2cc(-c3ncnc4cc(N5CCOCC5)ccc34)c(F)cc2Cl)nn1` + Cc1[nH]c2ccc(F)cc2c1-c1nc2c3cccnc3c3ncccc3c2[nH]1, the viability, T/C is 97.9%.

The same assay, now with this note: second compound 0.1 µM; first compound 1 µM; hits give low values.
As for `C=CCn1c(=O)c2cnc(Nc3ccc(N4CCN(C)CC4)cc3)nc2n1-c1cccc(C(C)(C)O)n1` + CN(C)c1ccc(Nc2c3ccc(NC(=O)CCN4CCCC4)cc3nc3cc(NC(=O)CCN4CCCC4)ccc23)cc1, the viability, T/C was 73.3%.

For the compound `CC(C)(O)C1CCC(Nc2ccc3ncc(-c4cccc(C(F)(F)F)c4)n3n2)CC1` (stereo unspecified) + CN(C)c1ccc(Nc2c3ccc(NC(=O)CCN4CCCC4)cc3nc3cc(NC(=O)CCN4CCCC4)ccc23)cc1, the viability, T/C is 87.4%.

As for `COc1ncnc(C2CC2)c1-c1ncc2cnn(Cc3ccc(-c4nc(C(F)(F)F)cn4C(C)C)cc3)c2n1` + CN(C)c1ccc(Nc2c3ccc(NC(=O)CCN4CCCC4)cc3nc3cc(NC(=O)CCN4CCCC4)ccc23)cc1, the viability, T/C is 87.6%.
